From patent US7691416B2, “Methods of treating vascular disease” (priority 2002, dated 2010)

Assays:
PAI-1 = assay: Western blot of PAI-1 in SMC; assay type: cell-based; settings: CO 250 ppm, 24 or 48 hours
From the text: (§1) Animals. Male (250-350 g) Brown Norway rats (RT1^n) were used as aortic graft donors and male (250-350 g) Lewis rats (RT11) as recipients. Dawley (400-450 g) rats were used in the balloon injury model. Adult male C57BL/6, C57/S129, p21^−/− and p53^−/− null mice were purchased from Jackson Laboratory (Bar Harbor, Me.). mkk3^(−/−) null mice were generated as described Lu et al. (EMBO. 18:1845-1857 (1999)). The inos^−/− and enos^−/− mice were bred at the University of Pittsburgh. Aortic transplant model. Aortic transplantation was performed as described in Shimizu et al. (Nat. Med. 7:738-741 (2001)). Briefly, 3 to 4 cm of descending aorta was harvested from the donor and implanted between the renal arteries and the aortic bifurcation of the recipient. Both edges of the native abdominal aorta were ligated. Balloon injury model. Balloon angioplasty was carried out as described in Murakami et al. (Atherosclerosis 157:361-368 (2001)). […] [^3H]thymidine incorporation was measured by scintillation spectroscopy and presented as mean counts/min/well. […] Areas from eight to ten captured images were calculated using digital imaging software as number of pixels corresponding to those areas. Twenty-four to forty-eight sections from each group were statistically analyzed with SPSS software version 10. […]

[1] = tested on: intimal hyperplasia in Brown Norway aortic segments transplanted into Lewis rats; assay: Aortic transplant model, histomorphometric analysis of intimal hyperplasia; assay type: in vivo, rat; settings: CO 250 ppm after transplantation and for 56 days; vs air-exposed recipients; day 56; p<0.001
From the text: as §1

SMC = assay: Trypan blue and propidium iodide exclusion analyses; assay type: cell-based; settings: SMC exposed to CO
From the text: as §1

ATF-2 = assay: Western blot of phosphorylated ATF-2 in SMC; assay type: cell-based; settings: SMC exposed to CO (250 ppm)
From the text: as §1

iNOS and eNOS = assay: Western blot of NOS isoforms in SMC; assay type: cell-based, mouse; settings: CO 250 or 10,000 ppm, varying amounts of time
From the text: as §1

JNK-1 and -2 = assay: Western blot of phosphorylated JNK in SMC; assay type: cell-based; settings: SMC exposed to CO (250 ppm)
From the text: as §1

[C-]#[O+] [CO, carbon monoxide]
PAI-1 protein (PAI-1): slightly increased | Intimal hyperplasia, reduction versus control [1]: 61.4±12.9% | Cell death accompanying inhibition of SMC proliferation (SMC): not associated with cell death | ATF-2 activation (ATF-2): activation | Induction of NOS isoforms (iNOS and eNOS): no induction | Activation of JNK-1 and -2 (JNK-1 and -2): induced activation
